Measurements as given in ChEMBL document CHEMBL1255407, “High diversity of extended-spectrum beta-lactamases in Escherichia coli isolates from Italian broiler flocks” (2010).

Key:
Escherichia coli [1] = assay: Antimicrobial activity against Escherichia coli isolates producing extended-spectrum beta-lactamases bla(CTX-M-1), bla(CTX-M-32) and bla(SHV-12) isolated from Italian broiler flocks by agar dilution method; format: functional
Escherichia coli [2] = assay: Antimicrobial activity against Escherichia coli isolates producing extended-spectrum beta-lactamases bla(CTX-M-1), bla(CTX-M-32) and bla(SHV-12) assessed as resistant isolates isolated from Italian broiler flocks by disk diffusion method

MIC (Escherichia coli [1]) [µg/mL]	SMILES	Activity (Escherichia coli [2]) [%]
≥ 2	CO/N=C(\C(=O)N[C@@H]1C(=O)N2C(C(=O)O)=C(COC(C)=O)CS[C@H]12)c1csc(N)n1 [CEFOTAXIME]	–
≥ 8	CO/N=C(\C(=O)N[C@@H]1C(=O)N2C(C(=O)O)=C(CSC(=O)c3ccco3)CS[C@H]12)c1csc(N)n1 [CEFTIOFUR]	–
–	CCn1cc(C(=O)O)c(=O)c2ccc(C)nc21 [NALIDIXIC ACID]	83
–	CN(C)[C@@H]1C(O)=C(C(N)=O)C(=O)[C@@]2(O)C(O)=C3C(=O)c4c(O)cccc4[C@@](C)(O)[C@H]3C[C@@H]12 [TETRACYCLINE]	94

SMILES	MIC (Escherichia coli [1]) [µg/mL]	Activity (Escherichia coli [2]) [%]
O=C(O)c1cn(C2CC2)c2cc(N3CCNCC3)c(F)cc2c1=O [CIPROFLOXACIN]	< 0.03	44
